In patent US7521454B2 (Dainippon Sumitomo Pharma Co., Ltd., priority 2001, dated 2009):
In brackets after ≈: the same amount, converted by molar mass. Structures can show the parent of a compound that is named as a salt. Where two headings read alike, the source gives them in different places.

What was measured:
[1] = test system: mouse spleen cell; experiment: cells; assay type: cell-based; details: for minimal effective concentration: Mus musculus, 24 h, read-out: Interferon-inducing activity: Minimum effective concentration
[2] = test system: IL-4 production; experiment: Inhibitory activity against Th2 cytokine produced from sensitized spleen cells: IL-4; assay type: cell-based, mouse; details: OVA-sensitized BALB/c spleen cells, 3 days; for activity at 0.001 µM / activity at 0.01 µM / activity at 0.1 µM / activity at 0.0001 µM: Mus musculus, 72 h; for activity at 0.001 µM / activity at 0.01 µM / activity at 0.1 µM: read-out: Inhibitory activity against IL-4 production
Procedure: (§1) A 7-week-old BALB/c mouse was immunized intraperitoneally with aluminum hydroxide gel (4 mg, 100 μl) having 10 μg of ovalbumin adsorbed thereon, and it was subjected to additional immunization with the same agent 14 days later. Seven days thereafter, spleen was taken out, and suspended in RPMI-1640 comprising inactivated fetal bovine serum (10%), 2-mercaptoethanol ([…]), penicillin G (100 U/ml), and streptomycin (100 μg/ml). Thus, a splenic cell suspension was prepared. Ovalbumin (0.5 mg/ml) and a test compound were added to a splenic cell suspension (5×10^6 cell/200 μl/well), and the resultant was cultured at 37° C. in the presence of 5% CO2 for 3 days. The cytokine level in the culture supernatant was quantified by ELISA. IFN-γ and IL-4 were assayed using a kit available from Amersham, and IL-5 was assayed using a kit available from Endogen.

[3] = test system: human peripheral blood mononuclear cells (PBMC); experiment: Interferon-inducing activity in human peripheral blood mononuclear cells (PBMC), IFN-α ELISA; assay type: cell-based; details: 24 h;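 further: IFN-α in pg/ml with a 1.25 pg/ml detection limit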
Procedure: Peripheral bloods were sampled from 5 healthy volunteers using a syringe containing heparin, and peripheral blood mononuclear cells (PBMC) were prepared by density gradient centrifugation utilizing the Lymphoprep™ (NYCOMED PHARMA AS). PBMCs were washed twice in serum-free RPMI 1640 medium and adjusted at 1×10^6 cells/ml in RPMI 1640 medium comprising 10% fetal bovine serum. The product was cultured in the presence of a test compound dissolved in dimethyl sulfoxide (final concentration: 0.1%) in an incubator in the presence of 5% CO^2 at 37° C. for 24 hours. As a control, 0.1% dimethyl sulfoxide containing no test compound was used. The culture supernatant was aseptically collected by filtration. Thereafter, the supernatant was cryopreserved at −20° C. or lower until it was subjected to the assay for IFN-inducing activity. Human IFN-α in the culture supernatant was quantified using a highly sensitive ELISA system (Amersham).

[4] = test system: Balb/c male mouse; experiment: Interferon-inducing activity in mouse (in vivo), serum interferon titer after oral dosing
[5] = test system: IL-5 production; experiment: Inhibitory activity against Th2 cytokine produced from sensitized spleen cells: IL-5; assay type: cell-based, mouse; details: OVA-sensitized BALB/c spleen cells, 3 days; for activity at 0.001 µM / activity at 0.01 µM / activity at 0.1 µM / activity at 0.0001 µM: Mus musculus, 72 h; for activity at 0.001 µM / activity at 0.01 µM / activity at 0.1 µM: read-out: Inhibitory activity against IL-5 production
Procedure: as §1

[6] = Gastrointestinal absorption in rat (drug level in blood by HPLC); assay type: in vivo; details: SD male rat
Procedure: A test compound was suspended in an aqueous solution of 0.5% carboxymethylcellulose, and the resulting suspension was orally administered to an SD male rat. Blood was sampled with the elapse of time, and the level of the drug in blood was assayed by HPLC.

[7] = Solubility in citric acid/disodium phosphate buffers; details: citric acid/disodium phosphate buffer, thermodynamic from solid
Procedure: 5.53% citric acid (monohydrate) and 1.75% disodium phosphate (anhydrous) were mixed together to prepare buffers (pH 2.5, 5.5, 7.4). A compound was added thereto, the mixture was stirred in a vortex mixer and subjected to ultrasonication for 30 minutes. Thereafter, the resultant was stirred in a vortex mixer again and then centrifuged at 15,000 rpm for 20 minutes. The levels of the compounds in the supernatants were then quantified by HPLC.

[8] = dosage 0.1 mg/kg oral, serum 2 h after dosing, Balb/c mouse
[9] = dosage 0.3 mg/kg oral, serum 2 h after dosing, Balb/c mouse
[10] = blood, dose 3 mg/kg oral, read-out: Cmax
[11] = blood, dose 3 mg/kg oral, read-out: Tmax

Row | Compound | Interferon-inducing activity (human IFN-α in culture supernatant) ([3]; concentration 1 nM) | Interferon-inducing activity (human IFN-α in culture supernatant) ([3]; concentration 3 nM) | minimal effective concentration [1] | activity at 0.001 µM ([2]; concentration 1 nM) | activity at 0.01 µM ([2]; concentration 10 nM) | activity at 0.1 µM ([2]; concentration 100 nM) | activity at 0.001 µM ([5]; concentration 1 nM) | activity at 0.01 µM ([5]; concentration 10 nM) | activity at 0.1 µM ([5]; concentration 100 nM) | activity at 0.0001 µM ([2]; concentration 0.1 nM) | Interferon-inducing activity ([4]; po, 0.03 mg/kg, 2 h) | Interferon-inducing activity ([4]; po, 0.1 mg/kg, 2 h) | Interferon-inducing activity ([4]; po, 0.3 mg/kg, 2 h) | activity at 0.0001 µM ([5]; concentration 0.1 nM) | solubility at 30 min ([7]; pH 2.5, aqueous buffer) | solubility at 30 min ([7]; pH 5.5, aqueous buffer) | solubility at 30 min ([7]; pH 7.4, aqueous buffer) | other results
1 | 1-(2-hydroxy-2-methylpropyl)-2-methoxyethyl-1H-imidazo[4,5-c]quinoline-4-amine [Comparative Example 2, reference compound] | — ((−) indicates a detection limit (1.25 pg/ml) or lower) | 6 ± 5 pg/mL |  |  |  |  |  |  |  |  |  |  |  |  |  |  |  | Interferon-inducing activity: Minimum effective concentration [1]: 3 nM; Inhibitory activity against IL-4 production ([2]; concentration 0.1 nM): 90 % of control; Inhibitory activity against IL-4 production ([2]; concentration 1 nM): 24 % of control; Inhibitory activity against IL-4 production ([2]; concentration 10 nM): 1 % of control; Inhibitory activity against IL-4 production ([2]; concentration 100 nM): <1 % of control; Interferon-inducing activity (human IFN-α in culture supernatant) ([3]; concentration 0.3 nM): — ((−) indicates a detection limit (1.25 pg/ml) or lower); Interferon-inducing activity [4, 8]: 1638 ± 246 U/ml; Interferon-inducing activity [4, 9]: 1961 ± 950 U/ml; Inhibitory activity against IL-5 production ([5]; concentration 0.1 nM): 106 % of control; Inhibitory activity against IL-5 production ([5]; concentration 1 nM): 73 % of control; Inhibitory activity against IL-5 production ([5]; concentration 10 nM): 18 % of control; Inhibitory activity against IL-5 production ([5]; concentration 100 nM): 10 % of control; Cmax ([6]; dose 3 mg/kg oral): 19 ng/mL; Tmax ([6]; dose 3 mg/kg oral): 60 min; Cmax ([6]; dose 10 mg/kg oral): 15 ng/mL; Tmax ([6]; dose 10 mg/kg oral): 30 min
2 | CC(C)Cn1cnc2c(N)nc3ccccc3c21 [Comparative Example 1, Imiquimod, reference compound] |  |  | 0.3 µM | 18% | 1% | < 1% | 54% | 15% | 10% |  |  |  |  |  |  |  |  | Cmax [6, 10]: 90 ng/mL; Tmax [6, 11]: 30 min
3 | CCCCOc1nc(N)c2nc(O)n(Cc3ccc(OC)nc3)c2n1 [Example 2, 2-Butoxy-8-hydroxy-9-(6-methoxy-3-pyridylmethyl)adenine] |  |  | 0.001 µM | 4% | < 1% | < 1% | 37% | 14% | 12% | 96% | 388 ± 87 U/ml | 1211 ± 263 U/ml | 2559 ± 495 U/ml | 98% |  |  |  | Interferon-inducing activity ([4]; po, 0.01 mg/kg, 2 h): 25 ± 17 U/ml
4 | CCCCNc1nc(N)c2nc(O)n(Cc3ccccn3)c2n1 [Example 20, 2-Butylamino-8-hydroxy-9-(2-pyridylmethyl)adenine] |  |  | 0.03 µM | 106% | 23% | 2% | 106% | 71% | 19% |  |  |  |  |  | 8810 µg/mL (≈ 28100 µM) |  |  | 
5 | CCCCNc1nc(N)c2nc(O)n(Cc3cccnc3)c2n1 [Example 21, 2-Butylamino-8-hydroxy-9-(3-pyridylmethyl)adenine] |  |  | 0.003 µM | 53% | 1% | < 1% | 97% | 23% | 15% |  | 15 ± 8 U/ml | 290 ± 134 U/ml | 571 ± 164 U/ml |  | 15000 µg/mL (≈ 47900 µM) | 45 µg/mL (≈ 144 µM) | 64 µg/mL (≈ 204 µM) | 
6 | CCCCNc1nc(N)c2nc(O)n(Cc3ccncc3)c2n1 [Example 22, 2-Butylamino-8-hydroxy-9-(4-pyridylmethyl)adenine] |  |  | 0.01 µM | 88% | 9% | 1% | 115% | 50% | 18% |  |  | 21 ± 9 U/ml | 332 ± 83 U/ml |  | > 80000 µg/mL | 73 µg/mL (≈ 233 µM) | 16 µg/mL (≈ 51.1 µM) | 
7 | CCCCOc1nc(N)c2nc(O)n(Cc3ccc(C)nc3)c2n1 [Example 25, 2-Butoxy-8-hydroxy-9-(6-methyl-3-pyridylmethyl)adenine] | 28 ± 24 pg/mL | 46 ± 34 pg/mL | 0.001 µM | 2% | < 1% | < 1% | 31% | 13% | 13% | 86% |  |  |  | 102% | > 1000 µg/mL | 5 µg/mL (≈ 15.2 µM) | 3 µg/mL (≈ 9.14 µM) | Interferon-inducing activity (human IFN-α in culture supernatant) ([3]; concentration 0.3 nM): 7 ± 3 pg/mL; Interferon-inducing activity ([4]; dosage 0.01 mg/kg oral, serum 2 h after dosing, Balb/c mouse): 65 ± 52 U/ml; Interferon-inducing activity ([4]; dosage 0.03 mg/kg oral, serum 2 h after dosing, Balb/c mouse): 151 ± 29 U/ml; Interferon-inducing activity [4, 8]: 753 ± 140 U/ml; Interferon-inducing activity [4, 9]: 721 ± 299 U/ml
8 | CCCCOc1nc(N)c2nc(O)n(Cc3ccc(C)nc3)c2n1 [Hydrochloride of Example 25, 2-Butoxy-8-hydroxy-9-(6-methyl-3-pyridylmethyl)adenine] |  |  |  |  |  |  |  |  |  |  |  |  |  |  |  |  |  | Cmax [6, 10]: 18 ng/mL; Tmax [6, 11]: 60 min; Cmax ([6]; blood, dose 10 mg/kg oral, read-out: Cmax): 150 ng/mL; Tmax ([6]; blood, dose 10 mg/kg oral, read-out: Tmax): 15 min
9 | CCCCNc1nc(N)c2nc(O)n(Cc3ccccc3)c2n1 [Reference Compound 1, 9-Benzyl-2-butylamino-8-hydroxyadenine, reference compound] |  |  | 0.1 µM |  | 109% | 24% |  | 92% | 69% |  |  | 55 ± 25 U/ml | 275 ± 165 U/ml |  | 26 µg/mL (≈ 83.2 µM) | < 1 µg/mL | < 1 µg/mL | 
10 | CCCCOc1nc(N)c2nc(O)n(Cc3ccccc3)c2n1 [Reference Compound 2, 9-benzyl-2-butoxy-8-hydroxyadenine, reference compound] | — ((−) indicates a detection limit (1.25 pg/ml) or lower) | 7 pg/mL | 0.001 µM | 48% | 1% | < 1% | 79% | 16% | 11% | 107% | 60 ± 40 U/ml | 186 ± 42 U/ml | 317 ± 160 U/ml | 99% | 2 µg/mL (≈ 6.38 µM) | < 1 µg/mL | < 1 µg/mL | Interferon-inducing activity (human IFN-α in culture supernatant) ([3]; concentration 10 nM): 23 ± 22 pg/mL; Interferon-inducing activity (human IFN-α in culture supernatant) ([3]; concentration 30 nM): 64 ± 40 pg/mL
